# Laboratory results: patent US9999222B2, “Herbicidal combination comprising azines” (BASF SE, priority 2014, dated 2018)
# “And” between values parts separate entries of the source, which are not always exact repeats. Equal values may be shown once. Read-outs that look alike come from different tables or passages of the source.
# Columns and labels:
# Test in all cases: Greenhouse test, pre-emergence treatment
# [1] = test system: ALOMY; type: in vivo, Alopecurus myosuroides
# Text: (§1) The culture containers used were plastic flowerpots containing loamy sand with approximately 3.0% of humus as the substrate. The seeds of the test plants were sown separately for each species.
# (§2) For the pre-emergence treatment, the active ingredients, which had been suspended or emulsified in water, were applied directly after sowing by means of finely distributing nozzles. The containers were irrigated gently to promote germination and growth and subsequently covered with transparent plastic hoods until the plants had rooted. This cover caused uniform germination of the test plants, unless this had been impaired by the active ingredients.
# (§3) Depending on the species, the plants were kept at 10-25° C. or 20-35° C., respectively.
# (§4) The test period extended over 2 to 4 weeks. During this time, the plants were tended, and their response to the individual treatments was evaluated.
# (§5) Evaluation was carried out using a scale from 0 to 100. 100 means no emergence of the plants, or complete destruction of at least the aerial moieties, and 0 means no damage, or normal course of growth. A moderate herbicidal activity is given at values of at least 60, a good herbicidal activity is given at values of at least 70, and a very good herbicidal activity is given at values of at least 85.
# (§6) The respective stated components a and b, and if appropriate, c were formulated as a 10% by weight strength emulsion concentrate and, with addition of the amount of solvent system, introduced into the spray liquor used for applying the active compound.
# (§7) In the examples, the solvent used was water.
# (§8) In the examples below, using the method of S. R. Colby (1967) “Calculating synergistic and antagonistic responses of herbicide combinations”, Weeds 15, p. 22ff., the value E, which is expected if the activity of the individual active compounds is only additive, was calculated. E=X+Y−(X·Y/100) where • X=percent activity using active compound a at an application rate A; • Y=percent activity using active compound b at an application rate B; • E=expected activity (in %) by a+b at application rates A+B.
# (§9) If the value found experimentally is higher than the value E calculated according to Colby, a synergistic effect is present.
# [2] = test system: SORHA; type: in vivo, Sorghum halepense; details: 125 g ai/ha, 20 DAT
# Text: as §1, §2, §3, §4, §5, §6, §7, §8, §9
# [3] = test system: POLCO; type: in vivo, Polygonum convolvulus; details: for observed % activity: 20 DAT; for inhibition at 62 g/ha: use rate 62 g ai/ha
# Outline: (§10)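 Damage was rated on a 0-100 scale, with 100 meaning no emergence or full destruction of aerial parts. Observed combination effects were set against the additive Colby expectation E=X+Y−(X·Y/100). Spray liquor was water-based, from 10% emulsion concentrates, applied pre-emergence right after sowing in loamy sand (about 3.0% humus). Plants were held at 10-25 °C or 20-35 °C for 2 to 4 weeks.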
# [4] = test system: GALAP; type: in vivo, Galium aparine; details: 20 DAT
# Outline: as §10
# [5] = test system: KCHSC; type: in vivo, Kochia scoparia; details: for observed % activity: 20 DAT; for inhibition at 31 g/ha: use rate 31 g ai/ha; for inhibition at 62 g/ha: use rate 62 g ai/ha
# Outline: as §10
# [6] = test system: AVEFA; type: in vivo, Avena fatua; details: 250 g ai/ha, 20 DAT
# Text: as §1, §2, §3, §4, §5, §6, §7, §8, §9
# [7] = test system: LOLMU; type: in vivo, Lolium multiflorum; details: for observed % activity: 20 DAT
# Text: as §1, §2, §3, §4, §5, §6, §7, §8, §9
# [8] = test system: PHACA; type: in vivo, Phalaris canariensis
# Text: as §1, §2, §3, §4, §5, §6, §7, §8, §9
# [9] = test system: ECHCG; type: in vivo, Echinocloa crus-galli; details: Echinochloa crus-galli, 480 h, read-out: observed % activity 20 DAT
# Text: as §1, §2, §3, §4, §5, §6, §7, §8, §9
# [10] = test system: SETFA; type: in vivo, Setaria faberi; details: for inhibition at 7.75 g/ha / inhibition at 15.5 g/ha: Setaria faberi, 480 h, read-out: observed % activity 20 DAT; for inhibition at 15.5 g/ha: use rate 15.5 g ai/ha
# Text: as §1, §2, §3, §4, §5, §6, §7, §8, §9
# [11] = test system: APESV; type: in vivo, Apera spica-venti; details: use rate 15.5 g ai/ha
# Text: as §1, §2, §3, §4, §5, §6, §7, §8, §9
# [12] = test system: VIOAR; type: in vivo, Viola arvensis; details: Viola arvensis, 480 h, read-out: observed % activity 20 DAT
# Text: as §1, §2, §3, §4, §5, §6, §7, §8, §9
# [13] = test system: GERPU; type: in vivo, Geranium pusillum; details: pre-emergence, pre-emergence
# Outline: as §10
# [14] = pre-emergence, use rate 7.75 g ai/ha
# [15] = pre-emergence, use rate 15.5 g ai/ha
# [16] = pre-emergence, use rate 31 g ai/ha
# [17] = pre-emergence, use rate 62 g ai/ha
# [18] = Bassia scoparia, pre-emergence, 480 h, KCHSC, pre-emergence, individual, read-out: observed % activity 20 DAT
# [19] = Bassia scoparia, pre-emergence, 480 h, pre-emergence, read-out: observed % activity 20 DAT
smiles,measurement,setting,value
COC[C@H](C)N(C(=O)CCl)c1c(C)csc1C [dimethenamid-P],observed % activity,"[1]; 125 g ai/ha, 20 DAT",45%
same,observed % activity,[2],98%
same,observed % activity,[3]; 125 g ai/ha,55%
same,observed % activity,[3]; 250 g ai/ha,50%
same,observed % activity,[4]; 125 g ai/ha,30%
same,observed % activity,[4]; 250 g ai/ha,50%
same,observed % activity,[5]; 125 g ai/ha,40%
same,observed % activity,[5]; 250 g ai/ha,85%
same,observed % activity,[6],65%
same,observed % activity,[7]; 125 g ai/ha,95%
same,observed % activity,[7]; 250 g ai/ha,95%
same,observed % activity,"[8]; 125 g ai/ha, 20 DAT",80%
"CC(C)(F)c1nc(N)nc(Nc2c(F)cccc2F)n1 [compound 10, N4-(2,6-difluorophenyl)-6-(1-fluoro-1-methyl-ethyl)-1,3,5-triazine-2,4-diamine]",inhibition at 15.5 g/ha,"[1]; Alopecurus myosuroides, pre-emergence, 480 h, ALOMY, pre-emergence, individual, use rate 15.5 g ai/ha, read-out: observed % activity 20 DAT",65%
same,inhibition at 31 g/ha,"[1]; Alopecurus myosuroides, pre-emergence, 480 h, ALOMY, pre-emergence, individual, use rate 31 g ai/ha, read-out: observed % activity 20 DAT",90%
same,inhibition at 62 g/ha,"[1]; Alopecurus myosuroides, pre-emergence, 480 h, ALOMY, pre-emergence, individual, use rate 62 g ai/ha, read-out: observed % activity 20 DAT",90%
same,inhibition at 7.75 g/ha,"[1]; Alopecurus myosuroides, pre-emergence, 480 h, pre-emergence, use rate 7.75 g ai/ha, read-out: observed % activity 20 DAT",65%
same,inhibition at 31 g/ha,"[1]; Alopecurus myosuroides, pre-emergence, 480 h, pre-emergence, use rate 31 g ai/ha, read-out: observed % activity 20 DAT",90%
same,inhibition at 62 g/ha,"[1]; Alopecurus myosuroides, pre-emergence, 480 h, pre-emergence, use rate 62 g ai/ha, read-out: observed % activity 20 DAT",90%
same,observed % activity 20 DAT,[1]; [14],75%
same,observed % activity 20 DAT,[1]; [15],70% and 95%
same,observed % activity 20 DAT,[1]; [16],98%
same,observed % activity 20 DAT,[1]; [17],95% and 98%
same,inhibition at 7.75 g/ha,[9]; use rate 7.75 g ai/ha,90%
same,inhibition at 15.5 g/ha,[9]; use rate 15.5 g ai/ha,95%
same,inhibition at 62 g/ha,"[3]; Fallopia convolvulus, pre-emergence, 480 h, POLCO, pre-emergence, individual, read-out: observed % activity 20 DAT",95%
same,inhibition at 7.75 g/ha,"[3]; Fallopia convolvulus, pre-emergence, 480 h, pre-emergence, use rate 7.75 g ai/ha, read-out: observed % activity 20 DAT",70%
same,inhibition at 15.5 g/ha,"[3]; Fallopia convolvulus, pre-emergence, 480 h, pre-emergence, use rate 15.5 g ai/ha, read-out: observed % activity 20 DAT",90%
same,inhibition at 62 g/ha,"[3]; Fallopia convolvulus, pre-emergence, 480 h, pre-emergence, read-out: observed % activity 20 DAT",95%
same,observed % activity 20 DAT,[3]; [14],75%
same,inhibition at 7.75 g/ha,"[10]; SETFA, individual, use rate 7.75 g ai/ha",90%
same,inhibition at 15.5 g/ha,"[10]; SETFA, individual",98%
same,inhibition at 7.75 g/ha,[10]; use rate 7.75 g ai/ha,75%
same,inhibition at 15.5 g/ha,[10],95%
same,observed % activity 20 DAT,[10]; use rate 7.75 g ai/ha,65%
same,inhibition at 15.5 g/ha,"[11]; Apera spica-venti, 480 h, read-out: observed % activity 20 DAT",95%
same,observed % activity 20 DAT,[11],98%
same,inhibition at 31 g/ha,[5]; [18],75%
same,inhibition at 62 g/ha,[5]; [18],90%
same,inhibition at 16.5 g/ha,"[5]; Bassia scoparia, pre-emergence, 480 h, pre-emergence, use rate 16.5 g ai/ha, read-out: observed % activity 20 DAT",65%
same,inhibition at 31 g/ha,[5]; [19],95%
same,inhibition at 62 g/ha,[5]; [19],90%
same,observed % activity 20 DAT,[5]; [14],85% and 55%
same,observed % activity 20 DAT,[5]; [15],85%
same,inhibition at 7.75 g/ha,[12]; use rate 7.75 g ai/ha,90%
same,inhibition at 15.5 g/ha,[12]; use rate 15.5 g ai/ha,85%
same,inhibition at 7.75 g/ha,"[7]; Lolium multiflorum, pre-emergence, 480 h, LOLMU, pre-emergence, individual, use rate 7.75 g ai/ha, read-out: observed % activity 20 DAT",30%
same,inhibition at 31 g/ha,"[7]; Lolium multiflorum, pre-emergence, 480 h, LOLMU, pre-emergence, individual, use rate 31 g ai/ha, read-out: observed % activity 20 DAT",70%
same,inhibition at 31 g/ha,"[7]; Lolium multiflorum, pre-emergence, 480 h, pre-emergence, use rate 31 g ai/ha, read-out: observed % activity 20 DAT",70%
same,inhibition at 62 g/ha,"[7]; Lolium multiflorum, pre-emergence, 480 h, pre-emergence, use rate 62 g ai/ha, read-out: observed % activity 20 DAT",90%
same,observed % activity 20 DAT,[7]; [14],15% and 20% and 0%
same,observed % activity 20 DAT,[7]; [15],35% and 50% and 25%
same,observed % activity 20 DAT,[7]; [16],80%
same,observed % activity 20 DAT,[7]; [17],85%
same,inhibition at 15.5 g/ha,"[13]; Geranium pusillum, 480 h, use rate 15.5 g ai/ha, read-out: observed % activity 20 DAT",75%
same,observed % activity 20 DAT,[13]; use rate 7.75 g ai/ha,50%
same,inhibition at 31 g/ha,"[8]; Phalaris canariensis, pre-emergence, 480 h, pre-emergence, use rate 31 g ai/ha, read-out: observed % activity 20 DAT",80%
same,inhibition at 62 g/ha,"[8]; Phalaris canariensis, pre-emergence, 480 h, pre-emergence, use rate 62 g ai/ha, read-out: observed % activity 20 DAT",75%
same,observed % activity 20 DAT,[8]; [15],60%
same,observed % activity 20 DAT,[8]; [16],85%
same,observed % activity 20 DAT,[8]; [17],70%
